Test results taken from EP4759825A1, “PEPTIDE FRAGMENT AND USE THEREOF” (Toagosei Co., Ltd., priority 2023, dated 2026).
FAM = 5(6)-carboxyfluorescein

Test system: NSC-34 cells
Assay: Evaluation of cell membrane permeability (flow cytometer, mean fluorescence intensity of cells cultured with the construct)
Format: cell-based, mouse
Settings: mean fluorescence intensity (FL2 detector), 10 µM construct or FAM, 0.5% DMSO, 20 hours at 37°C, 5% CO2
Description: As the eukaryotic cells, NSC-34 cells (mouse motor neuron-like hybrid cell line) were used and the cell membrane permeability of the prepared construct was evaluated.
The NSC-34 cell was cultured in 10% fetal bovine serum (FBS)-containing Dulbecco's modified Eagle's medium (DMEM (Cat No. 044-29765, manufactured by FUJIFILM Wako Pure Chemical Corporation)), which is a culture medium.
The NSC-34 cell that adhered to a culture plate was cleaned with PBS and then, a 0.25%-trypsin/EDTA solution was added thereto, and incubation was performed for three minutes at 37°C. […]
Regarding the obtained cells (cell pellet), the cell membrane permeability was analyzed using a flow cytometer. […]
Using the aforementioned flow cytometer, gating based on forward scatter (FSC) and side scatter (SSC) was performed to set a gate about a cell group to be analyzed, and the fluorescence intensity was measured about the cell group in this gate. Note that the number of cells of the cell group to be analyzed was set to about 10000, and the analysis was performed. The fluorescence intensity was measured using a fluorescence detector FL2 of the flow cytometer (optimum detection wavelength around 543 nm) capable of detecting the fluorescence wavelength of FAM. […]

| Substance | MFI |
| --- | --- |
| 5(6)-carboxyfluorescein [Example 6] | 8.83 |
| Ac-KKRTLRKSNRKKR-FAM (Ac-KKRTLRKSNRKKR-{FAM}) [Example 5] | 22.4 |
